In publication PMC5736709, “Unravelling the specificity and mechanism of sialic acid recognition by the gut symbiont Ruminococcus gnavus” (Nature Communications, 2017):
Several values for one entry are separate records, joined by “and”; a condition that tells them apart may be missing. Equal values may be shown once. Entries after “also recorded” stand apart in the source; their conditions may differ.

T1: RgCBM40 I95A (Mediterraneibacter gnavus (Ruminococcus gnavus), UniProt A7B557, I95A)
T1 sequence (A7B557 50-237 I95A): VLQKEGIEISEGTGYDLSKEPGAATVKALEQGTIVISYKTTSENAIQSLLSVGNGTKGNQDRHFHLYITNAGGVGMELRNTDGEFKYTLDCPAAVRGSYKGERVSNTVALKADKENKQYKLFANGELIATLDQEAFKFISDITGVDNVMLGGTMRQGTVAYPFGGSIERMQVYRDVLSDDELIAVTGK

T2: RgCBM40 Y116A (Mediterraneibacter gnavus (Ruminococcus gnavus), UniProt A7B557, Y116A)
T2 sequence (A7B557 50-237 Y116A): T1 sequence (A7B557 50-237 I95A)

T3: RgCBM40 E126A (Mediterraneibacter gnavus (Ruminococcus gnavus), UniProt A7B557, E126A)
T3 sequence (A7B557 50-237 E126A): T1 sequence (A7B557 50-237 I95A)

T4: RgCBM40 R128A (Mediterraneibacter gnavus (Ruminococcus gnavus), UniProt A7B557, R128A)
T4 sequence (A7B557 50-237 R128A): T1 sequence (A7B557 50-237 I95A)

T5: RgCBM40 R204A (Mediterraneibacter gnavus (Ruminococcus gnavus), UniProt A7B557, R204A)
T5 sequence (A7B557 50-237 R204A): T1 sequence (A7B557 50-237 I95A)

T6: RgCBM40 R128A/R204A (Mediterraneibacter gnavus (Ruminococcus gnavus), UniProt A7B557, R128A/R204A)
T6 sequence (A7B557 50-237 R128A/R204A): T1 sequence (A7B557 50-237 I95A)

T7: RgCBM40 Y210A (Mediterraneibacter gnavus (Ruminococcus gnavus), UniProt A7B557, Y210A)
T7 sequence (A7B557 50-237 Y210A): T1 sequence (A7B557 50-237 I95A)

B1: RgCBM40 (residues 50–237 of RgNanH), preparation for all other protein assays (ELISA) (domain or fragment, Ruminococcus gnavus ATCC 29149, UniProt A7B557 50-237, looked up)
chain: T1 sequence (A7B557 50-237 I95A)
notes: in the ELISA it was detected with anti-RgNanH antiserum

Tests used:
RgCBM40 [1] = molecular target: T8, RgCBM40 (Mediterraneibacter gnavus (Ruminococcus gnavus), UniProt A7B557); assay: ITC of sialoglycans binding to RgCBM40 wild type; parameters: species or system Ruminococcus gnavus ATCC 29149; details: RgCBM40 WT
Experimental: (§1) Isothermal titration calorimetry (ITC) experiments were performed using the PEAQ-ITC system (Malvern, Malvern, UK) with a cell volume of 200 µl. Prior to titration protein samples were exhaustively dialysed into PBS. The ligand was dissolved in the dialysis buffer. The cell protein concentration was 115 µM (except for mutant I95A where it was 173 µM and the wild-type interaction with 6′SL where it was 230 µM) and the syringe ligand concentration was 10 mM (25 mM for Neu5Ac). Controls with titrant (sugar) injected into buffer only were subtracted from the data. Analysis was performed using Malvern software, using a single-binding site model. The stoichiometry of binding sites was set to 1.0 as this was evident from the crystal structure. Quantitative and most qualitative experiments were carried out in triplicate.

RgCBM40 I95A = molecular target: T1, RgCBM40 I95A; assay: ITC of sialoglycans binding to RgCBM40 mutant I95A; parameters: species or system Ruminococcus gnavus ATCC 29149; details: 173 µM protein, syringe 10 mM sugar (25 mM for Neu5Ac), * = estimate only
Experimental: (§2) Site directed mutagenesis of RgGH33 to introduce the D282A mutation in the active site was carried out using the QuikChange kit, following the manufacturer’s instructions, Agilent (Santa Clara, CA, USA). Site-directed mutants of RgCBM40; I95A, Y116A, E126A, R128A, R204A and double mutant R128A/R204A, were obtained from NZyTech (Lisbon, Portugal). The primers are listed in Supplementary Table 4. The integrity of the RgGH33 and RgCBM40 mutants was checked by circular dichroism (CD).
as §1

RgCBM40 Y116A = molecular target: T2, RgCBM40 Y116A; assay: ITC of sialoglycans binding to RgCBM40 mutant Y116A; parameters: species or system Ruminococcus gnavus ATCC 29149
Experimental: as §2, §1

RgCBM40 E126A = molecular target: T3, RgCBM40 E126A; assay: ITC of sialoglycans binding to RgCBM40 mutant E126A; parameters: species or system Ruminococcus gnavus ATCC 29149
Experimental: as §2, §1

RgCBM40 R128A = molecular target: T4, RgCBM40 R128A; assay: ITC of sialoglycans binding to RgCBM40 mutant R128A; parameters: species or system Ruminococcus gnavus ATCC 29149
Experimental: as §2, §1

RgCBM40 R204A = molecular target: T5, RgCBM40 R204A; assay: ITC of sialoglycans binding to RgCBM40 mutant R204A; parameters: species or system Ruminococcus gnavus ATCC 29149
Experimental: as §2, §1

RgCBM40 R128A/R204A = molecular target: T6, RgCBM40 R128A/R204A; assay: ITC of sialoglycans binding to RgCBM40 double mutant R128A/R204A; parameters: species or system Ruminococcus gnavus ATCC 29149
Experimental: as §2, §1

RgCBM40 Y210A = molecular target: T7, RgCBM40 Y210A; assay: ITC of sialoglycans binding to RgCBM40 mutant Y210A; parameters: species or system Ruminococcus gnavus ATCC 29149
Experimental: as §1

RgCBM40 [2] = molecular target: T8, RgCBM40; assay: STD NMR of sialoglycans with RgCBM40 WT; parameters: species or system Ruminococcus gnavus ATCC 29149; details: 1 mM sialoglycan, 50 μM RgCBM40 WT, 288 K; 'exception' = monosaccharides for which binding was not detected
Experimental: ^1H and ^13C resonance assignment for all the sugars was performed on the bases of 1D ^1H, 2D DQF-COSY, TOCSY, HSQC and NOESY experiments run on the free ligands in unbuffered D2O, pH 7.0. For STD NMR experiments, all the samples consisted of 1 mM sialoglycans and 50 μM RgCBM40 (WT or I95A mutant) in D2O buffer solution of 10 mM Tris-d11 pH 7.8 and 100 mM NaCl (ligand: protein ratio 20:1). An STD pulse sequence that included 2.5 ms and 5 ms trim pulses and a 3 ms spoil gradient was used. Saturation was achieved applying a train of 50 ms Gaussian pulses (0.40 mW) on the f2 channel, at 0.60 p.p.m. (on-resonance experiments) and 40 p.p.m. (off-resonance experiments). The broad protein signals were removed using a 40 ms spinlock (T1ρ) filter. All the experiments were recorded at ^1H frequency of 800.23 MHz on a Bruker Avance III spectrometer equipped with a 5 mm probe TXI 800 MHz H-C/N-D-05 Z BTO, at 288 K. For all the sialoglycans in the presence of RgCBM40, an STD experiment with a saturation time of 2 s and a relaxation delay of 5 s was performed, as a first test for binding. For the confirmed binders, the STD NMR experiments were carried out at different saturation times (0.5, 1, 2, 3, 4 and 5 s) with 1 K scans and relaxation delay of 5 s, in order to obtain the binding epitope mapping. The resulting build-up curves for each proton were fitted mathematically to a mono-exponential equation (y = a×[1-exp(b×x)]), from which the initial slopes (a×b) were obtained. For each ligand, the binding epitope mapping was obtained by dividing the initial slopes by the one of the H7 proton of the corresponding sialic acid ring, to which an arbitrary value of 100% was assigned. This normalisation of the STD values allows the comparison across all the sialoglycans.

[3] = test system: RgCBM40 binding to LS174T MUC2; assay: ELISA of RgCBM40 binding to LS174T MUC2 in competition with sugars; parameters: species or system Ruminococcus gnavus ATCC 29149; details: RgCBM40 preincubated with 1 mM free sugar overnight at 4 °C; immobilised LS174T MUC2; A450
Experimental: RgCBM40 binding to purified mucins was tested by ELISA. Mucins (100 μl of 10 μg ml^−1) were immobilised onto a high binding 96 well plate (Greiner, Stonehouse, UK) overnight at 4 °C. All subsequent steps were carried out for 1 h at room temperature. The plates were blocked with 3% (w/v) BSA, incubated with RgCBM40 (500 μg ml^−1), followed by an incubation with 1:5000 anti-RgNanH (raised in rabbit, Biogenes) then with 1:5000 anti-rabbit secondary antibody (raised in donkey) conjugated to peroxidase (GE Healthcare). Between each step, the plate was washed with 3 × 300 μl of PBS containing 0.05% (v/v) Tween 20 (PBST). Prior to detection, an additional wash step and 30 s incubation with PBST was carried out. Binding was detected using tetramethylbenzidine (TMB) visualisation solution (Biolegend, San Diego, CA, USA) which was incubated for 15 min. The reaction was stopped by addition of 2 M H2SO4 and absorbance measured at 450 nm using a plate-reader (Bench Marl Plus, Biorad), subtracting background readings at 570 nm. Negative controls including no RgCBM40 (subtracted from A450 value), no primary or no secondary antibody were carried out in parallel. For comparison between plates, values were normalised to the reading for LS174T MUC2 which was arbitrarily set at 100%. For enzymatic treatment of the mucin, LS174T MUC2 (2 mg ml^−1) was incubated with sialidases (2 µg ml^−1) overnight at 4 °C on a rotary wheel prior to immobilisation on the plate. For chemical treatment of mucin, LS174T MUC2 was incubated with 0.1 M trifluoroacetic acid (TFA) at 80 °C for 1 h, dialysed against ammonium bicarbonate (50 mM), lyophilised and redissolved in H2O. For the competition assays, RgCBM40 was incubated with 1 mM of free sugar overnight at 4 °C on a rotary wheel prior to addition to the ELISA plate as above. Experiments were carried out in triplicate.

[4] = molecular target: T9, LS174T MUC2 treated with trifluoroacetic acid or a sialidase to remove sialic acid (human (endogenous in LS174T), UniProt Q02817 21-5289, O-glycans with sialic acid removed by TFA or by a sialidase from C. perfringens, S. typhimurium, A. muciniphila or R. gnavus; reduced with dithiothreitol and alkylated with iodoacetamide); assay: ELISA; mucins (100 µl of 10 µg ml^-1) immobilised on a 96 well plate, RgCBM40 at 500 µg ml^-1 for 1 h at room temperature, detected with rabbit anti-RgNanH and a peroxidase-conjugated secondary antibody, A450; values normalised to LS174T MUC2 = 100%; details: both partners purified
T9 construct: MUC2, gel-forming mucin secreted by the human LS174T cell line; also called MUC2 treated chemically (TFA) or enzymatically with a sialidase (Cp, St, Am/Ak, Rg)

Row | binding result [4] | Molecule | Kd (RgCBM40 [1]; Kd, ITC in PBS, 115-230 μM protein in cell, syringe 10 mM sugar (25 mM for Neu5Ac), * = estimate only, Kd too high to determine) | Binding to RgCBM40 (in words) (RgCBM40 [1]) | Kd (RgCBM40 I95A) [mM] | Binding by ITC (in words) (RgCBM40 Y116A) | Kd (RgCBM40 Y116A; ITC) [mM] | Binding by ITC (in words) (RgCBM40 E126A) | Kd (RgCBM40 E126A; ITC) [mM] | Binding by ITC (in words) (RgCBM40 R128A) | Kd (RgCBM40 R128A; ITC) [mM] | Binding by ITC (in words) (RgCBM40 R204A) | Kd (RgCBM40 R204A; ITC) [mM] | Binding by ITC (in words) (RgCBM40 R128A/R204A) | Kd (RgCBM40 R128A/R204A; ITC) [mM] | Binding by ITC (in words) (RgCBM40 Y210A) | Kd (RgCBM40 Y210A; ITC) [mM] | Binding to RgCBM40 detected by STD NMR (RgCBM40 [2]) | Effect of free sugar on adherence of RgCBM40 to MUC2 [3]
1 |  | CC(=O)N[C@H]1[C@H]([C@H](O)[C@H](O)CO)OC(O)(C(=O)O)C[C@@H]1O (stereo partly drawn) [Neu5Ac, N-acetylneuraminic acid] | ~21 mM and ~20 mM | weak binding | ~23 | abolished | > 25 | abolished | > 25 | abolished | > 25 | abolished | > 25 | abolished | > 25 | abolished | > 25 | exception; also recorded: no interaction was observed | no effect
2 | binds | B1 |  |  |  |  |  |  |  |  |  |  |  |  |  |  |  |  | 
